Structures are written as SMILES.

The text below walks through data of patent US7517875B2, “Piperidine derivatives having CCR3 antagonism” (Teijin Limited, priority 2002, dated 2009).

The assay concerns the target T1, CCR3 receptor (Homo sapiens, UniProt P51677).
T1 construct: expressed in transfected cells; host or cells: K562 cells
T1 sequence (P51677 1-355): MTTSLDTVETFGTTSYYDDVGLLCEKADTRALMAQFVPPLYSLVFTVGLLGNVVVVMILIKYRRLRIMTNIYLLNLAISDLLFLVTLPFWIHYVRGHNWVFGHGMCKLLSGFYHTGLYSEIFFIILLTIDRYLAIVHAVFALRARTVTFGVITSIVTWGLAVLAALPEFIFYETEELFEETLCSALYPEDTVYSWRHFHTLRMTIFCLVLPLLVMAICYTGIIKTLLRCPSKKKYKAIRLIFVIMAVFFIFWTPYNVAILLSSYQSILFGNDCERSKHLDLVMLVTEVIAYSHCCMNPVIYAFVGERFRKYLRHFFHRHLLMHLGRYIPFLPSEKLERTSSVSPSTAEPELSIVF
In words: Inhibition of eotaxin-induced intracellular calcium concentration increase in CCR3-expressing cells. The class given is cell-based. The settings on record: CCR3-expressing K562 cells, human eotaxin 0.5 μg/ml, read-out: inhibition of eotaxin-induced intracellular calcium concentration increase (Suppression); for inhibition at 10 µM: 10 μM concentration of compound; for inhibition at 2 µM: 2 μM concentration of compound. The protocol: Measurement of Inhibiting Power of Test Compounds Against Eotaxin-Induced Intracellular Calcium Concentration Increase in CCR3-Expressing Cells
K562 cells stably expressing CCR3 receptor were used in the following method for measurement of the inhibiting power of compounds of the invention against intracellular calcium concentration increase.
The CCR3-expressing K562 cells were suspended in HBSS solution (Hanks' Balanced Salt Solution, Gibco BRL) containing 10 mM HEPES (N-[2-hydroxyethyl]piperazine-N′-[2-ethanesulfonic acid], Gibco BRL), and then 1 mM Fura-2 acetoxymethyl ester (product of Dojin Kagaku) was added to a final concentration of 1 μM and the mixture was incubated at 37° C. for 30 minutes. After rinsing the cells, they were added simultaneously with the test compound into a 96-well white plate (Falcon), the agonist was added after 5 minutes, the mixture was excited at 340 nm and 380 nm, and the 340/380 ratio was monitored to measure the intracellular calcium concentration. Human eotaxin (product of Genzyme Techne) (0.5 μg/ml) was used as an agonist. The inhibiting power of the test compound was determined by measuring the intracellular calcium concentration upon treatment of the CCR3-expressing K562 cells with the test compound 5 minutes before eotaxin stimulation, and calculating the suppression by the following formula. Suppression (%)={1−(A−B)/(C−B)}×100 (A: Intracellular calcium concentration upon stimulation with eotaxin after treatment with test compound, B: Intracellular calcium concentration without stimulation, C: Intracellular calcium concentration upon stimulation with eotaxin without treatment with test compound)

For `Clc1ccc(CN2CCC(CNc3nc4ccccc4[nH]3)CC2)cc1Cl` [1-1-1, (1H-benzoimidazol-2-yl)-[1-(3,4-dichloro-benzyl)-piperidin-4-ylmethyl]-amine], the inhibition at 10 µM is ≥ 80%.
In the case of `Cn1c(CN2CCC(CNc3nc4ccccc4[nH]3)CC2)cc2ccccc21` [1-2-1, (1H-benzimidazol-2-yl)-[1-(1-methyl-1H-indol-2-ylmethyl)-piperidin-4-ylmethyl]-amine], the inhibition at 10 µM was ≥ 80%.
For `c1ccc(CCCCN2CCC(CNc3nc4ccccc4[nH]3)CC2)cc1` [1-2-170, (1H-benzimidazol-2-yl)-[1-(4-phenyl-butyl)-piperidin-4-ylmethyl]-amine], the inhibition at 10 µM lay in the range of 50 to 80%.
Consider `CC(=O)NCCC(=O)Nc1cccc2[nH]c(NCC3CCN(Cc4cccc5ccccc45)CC3)nc12` [1-3-1, 3-acetylamino-N-{2-[(1-naphthalen-1-ylmethyl-piperidin-4-ylmethyl)-amino]-1H-benzimidazol-4-yl}-propionamide], for which the inhibition at 2 µM is ≥ 80%.
`CCNC(=O)Nc1cccc2[nH]c(NCC3CCN(Cc4ccc(Cl)c(Cl)c4)CC3)nc12` [1-3-59, 1-(2-{[1-(3,4-dichloro-benzyl)-piperidin-4-ylmethyl]-amino}-1H-benzimidazol-4-yl)-3-ethyl-urea]: the inhibition at 10 µM is ≥ 80%.
`Nc1cccc2[nH]c(NCC3CCN(Cc4ccc(Cl)c(Cl)c4)CC3)nc12` [1-3-61, N2-[1-(3,4-dichlorobenzyl)-piperidin-4-ylmethyl]-1H-benzimidazole-2,4-diamine]: the inhibition at 10 µM is ≥ 80%.
`COC(=O)c1cccc2[nH]c(NCC3CCN(Cc4cc(Cl)cc(Cl)c4O)CC3)nc12` [1-4-1, 2-{[1-(3,5-dichloro-2-hydroxy-benzyl)-piperidin-4-ylmethyl]-amino}-1H-benzimidazole-4-carboxylic acid methyl ester]: the inhibition at 2 µM was in the range of 20 to 50%.
For the molecule `COCCNC(=O)c1cccc2[nH]c(NCC3CCN(Cc4cc(Cl)ccc4O)CC3)nc12` [1-4-10, 2-{[1-(5-chloro-2-hydroxy-benzyl)-piperidin-4-ylmethyl]-amino}-1H-benzimidazole-4-carboxylic acid (2-methoxy-ethyl)-amide], the inhibition at 2 µM was ≥ 80%.
With `O=C(O)c1ccc2[nH]c(NCC3CCN(CCCc4ccccc4)CC3)nc2c1` [1-5-20, 2-{[1-(3-phenyl-propyl)-piperidin-4-ylmethyl]-amino}-1H-benzimidazole-5-carboxylic acid], the inhibition at 10 µM lay in the range of 50 to 80%.
